Read-outs that look alike come from different tables or passages of the source.
Tests used:
[1] = test system: advanced soft tissue sarcomas; conditions: patients; cited from earlier work
[2] = humans, cited from earlier work; for Cmax: recommended dose and regimen, read-out: maximum plasma concentration (Cmax)
[3] = test system: human HT1080 fibrosarcoma cells; experiment: Clonogenic assay, HT1080 fibrosarcoma cells; type: cell-based; conditions: increasing concentrations, 1000 cells plated, FIG. 2
Experimental: (§1) One thousand treated cells were plated in triplicate in this instance, and colonies were similarly scored.

S2 liposarcoma cell line = experiment: Clonogenic assay, S2 high-grade liposarcoma cells; type: cell-based, human; conditions: 2.5, 10, 20 μM, 4 hours, FIG. 3
Experimental: A second high-grade liposarcoma cell line, S2 (a kind gift from Dr. Wei Wen, City of Hope Medical Center), was tested for protease inhibitor (PI) therapy for liposarcoma. The purpose of the experiment was to determine whether nelfinavir-mediated inhibition of liposarcoma clonogenicity could be reproduced in S2 cells. As with the SW872 experiment, S2 cells […], indinavir, ritonavir, and saquinavir. […] Colonies (≧40 cells/colony) were scored at 7-10 days with the Eagle Eye II gel documentation system (Stratagene, La Jolla, Calif.). FIG. 3 summarizes the mean and standard deviation of the triplicate colony counts for each experimental condition.

pre-adipocytes = conditions: incubation for 48 hours; cited from earlier work
SREBP-1 [4] = experiment: SREBP-1 protein levels in SW872 cells; type: cell-based, human
Experimental: In order to influence transcription, the NH2-terminal domain of SREBP-1 must be proteolytically released from the membrane to enter the nucleus (68 kDa). […] Alterations in both SREBP-1 and PPARγ levels have been proposed as the mechanisms underlying of HIV protease-induced lipodystrophy (15-18, 21). To determine whether a similar mechanism is responsible for the observation of nelfinavir-mediated inhibition of liposarcoma clonogenicity, whole cell extracts are prepared from control and nelfinavir-treated SW872 cells for SDS-PAGE electrophoresis. After transfer to polyvinylidene fluoride membranes, the extracts are probed with rabbit polyclonal antibodies to SREBP-1 and PPARγ (Santa Cruz Biotechnology, Santa Cruz, Calif.). Protein detection is performed by ECL using commercially available reagents as per the manufacturer's instructions (Applied Biosystems, Foster City, Calif.). To control for protein-loading, the membranes are stripped and reprobed with antibody to β-actin (Santa Cruz Biotechnology).

[5] = cited from earlier work
[6] = cited from earlier work; remark: listed apart in the source
SREBP-1 [7] = experiment: Western blot of SREBP-1 protein in S2 cells; type: cell-based, human; conditions: 10 μM, FIG. 4
Source text: In order to influence transcription, the NH2-terminal domain of SREBP-1 must be proteolytically released from the membrane to enter the nucleus (68 kDa).

[8] = test system: differentiated adipocytes; conditions: incubation for 48 hours; cited from earlier work
[9] = test system: human 293 embryonic kidney cells; experiment: Clonogenic assay, 293 embryonic kidney cells; type: cell-based; conditions: increasing concentrations, 1000 cells plated, FIG. 2
Experimental: as §1

SW872 liposarcoma cells = experiment: Clonogenic assay, SW872 liposarcoma cells; type: cell-based, human; conditions: for concentration that inhibits SW872 liposarcoma clonogenicity (colony growth): 4 hours treatment, 2000 cells plated, colonies scored at 7-10 days, FIG. 1
Experimental: The experimental conditions were intended to bracket these clinically relevant concentrations.
Two thousand treated cells were plated into 60 mm tissue culture plates in triplicate, and colonies (≧40 cells/colony) were scored at 7-10 days with the Eagle Eye II gel documentation system (Stratagene, La Jolla, Calif.). FIG. 1 summarizes the mean and standard deviation of the triplicate colony counts for each experimental condition. […] Ritonavir inhibits colony growth if administered in a concentration of at least 10 μM.
as §1

[10] = test system: intermediate to high-grade liposarcoma; conditions: patients with liposarcoma; cited from earlier work

COc1cccc2c1C(=O)c1c(O)c3c(c(O)c1C2=O)C[C@@](O)(C(=O)CO)C[C@@H]3O[C@H]1C[C@H](N)[C@H](O)[C@H](C)O1 [doxorubicin]
response rate [1]: about 25%

CC(C)(C)NC(=O)[C@@H]1CN(Cc2cccnc2)CCN1C[C@@H](O)C[C@@H](Cc1ccccc1)C(=O)N[C@H]1c2ccccc2C[C@H]1O [indinavir]
Cmax [2]: 12.5 µM

Cc1c(O)cccc1C(=O)N[C@@H](CSc1ccccc1)[C@H](O)CN1C[C@H]2CCCC[C@H]2C[C@H]1C(=O)NC(C)(C)C [nelfinavir]
fibrosarcoma (HT1080) clonogenicity [3]: minimally affecting
clonogenicity in the S2 liposarcoma cell line (S2 liposarcoma cell line): inhibits clonogenicity
apoptosis in pre-adipocytes (pre-adipocytes): not in pre-adipocytes
expression of SREBP-1 (SREBP-1 [4]): upregulates expression of SREBP-1
water solubility [5]: water-soluble
oral bioavailability ([6]; fed rats): 43%
plasma Cmax ([6]; rat, daily gavage 50 mg/kg in 5% dextrose or propylene glycol-water): 1340 to 1650 ng/mL
Cmax ([6]; rat, daily gavage 50 mg/kg in 5% dextrose or propylene glycol-water, read-out: plasma Cmax): 2.33 to 2.87 µM
time plasma levels were maintained after dosing ([6]; rat, oral 50 mg/kg): up to 7 hours
SREBP-1 protein (nuclear active and precursor forms) (SREBP-1 [7]): upregulated in a time-dependent fashion
apoptosis in differentiated adipocytes [8]: induced apoptosis
oral bioavailability ([2]; administered with food): 70-80%
Cmax [2]: 6.97 µM
embryonic kidney (293) clonogenicity [9]: minimally affecting
concentration that inhibits SW872 liposarcoma clonogenicity (colony growth) (SW872 liposarcoma cells): ≥ 2.5 µM
colonies in the SW872 cell line (SW872 liposarcoma cells; nelfinavir 20 μM, 1000 cells plated, FIG. 2): marked reduction in colonies

CC(C)c1nc(CN(C)C(=O)N[C@H](C(=O)N[C@@H](Cc2ccccc2)C[C@H](O)[C@H](Cc2ccccc2)NC(=O)OCc2cncs2)C(C)C)cs1 [ritonavir]
apoptosis in pre-adipocytes (pre-adipocytes): not in pre-adipocytes
apoptosis in differentiated adipocytes [8]: induced apoptosis
Cmax [2]: 15.5 µM
concentration that inhibits SW872 liposarcoma clonogenicity (colony growth) (SW872 liposarcoma cells): at least 10 μM

CC(C)(C)NC(=O)[C@@H]1C[C@@H]2CCCC[C@@H]2CN1C[C@@H](O)[C@H](Cc1ccccc1)NC(=O)[C@H](CC(N)=O)NC(=O)c1ccc2ccccc2n1 [saquinavir]
apoptosis in pre-adipocytes (pre-adipocytes): not in pre-adipocytes
apoptosis in differentiated adipocytes [8]: induced apoptosis
Cmax [2]: 3.67 µM

Cc1c(C)c2c(c(C)c1O)CCC(C)(COc1ccc(CC3SC(=O)NC3=O)cc1)O2 (centres unmarked) [troglitazone]
toxicity of therapy [10]: negligible

— patent publication US7812034B2, “Method of using protease inhibitors for the treatment of liposarcomas” (City of Hope, priority 2003, dated 2010)
